Assay results: article PMC9154192 (PLoS Biology, 2022)
Values after ≈ are worked out from the molar mass of the structure shown. Values joined by “and” are separate entries in the source; they are usually repeats but may differ in a detail not shown here. Identical values can stand only once. Like-named read-outs stand apart in the source and are kept apart here.

Experiments:
[1] = system: M. bovis BCG strains; assay: organism not typed; type: cell-based, Mycobacterium bovis BCG
[2] = type: cell-based
[3] = for % MNPCE (Mean ± S.D.) / % PCE (Mean ± S.D.): 24 hours after dosing
Experimental: Genotoxicity studies for PP2S were performed according to the ICH (International conference on harmonization) harmonized tripartite guideline, S2(R1). Regarding previous reports, the bacterial reverse mutation test, chromosomal abnormality test, and mouse bone marrow micronucleus test were performed with slight modifications.

[4] = system: GFP-expressing M. tuberculosis; type: cell-based, Mycobacterium tuberculosis; details: 1 μg/ml
[5] = TA100, 4.88 μg/plate, absence of S9 mix
[6] = TA100, 4.88 μg/plate, presence of S9 mix
[7] = TA100, 78.1 μg/plate, absence of S9 mix
[8] = TA100, 78.1 μg/plate, presence of S9 mix
[9] = TA100, 313 μg/plate, absence of S9 mix
[10] = TA100, 313 μg/plate, presence of S9 mix
[11] = TA1535, 4.88 μg/plate, absence of S9 mix
[12] = TA1535, 4.88 μg/plate, presence of S9 mix
[13] = TA1535, 78.1 μg/plate, absence of S9 mix
[14] = TA1535, 78.1 μg/plate, presence of S9 mix
[15] = TA1535, 313 μg/plate, absence of S9 mix
[16] = TA1535, 313 μg/plate, presence of S9 mix
[17] = TA1537, 4.88 μg/plate, absence of S9 mix
[18] = TA1537, 4.88 μg/plate, presence of S9 mix
[19] = TA1537, 78.1 μg/plate, absence of S9 mix
[20] = TA1537, 78.1 μg/plate, presence of S9 mix
[21] = TA1537, 313 μg/plate, absence of S9 mix
[22] = TA1537, 313 μg/plate, presence of S9 mix
[23] = WP2uvrA (pKM101), 4.88 μg/plate, absence of S9 mix
[24] = WP2uvrA (pKM101), 4.88 μg/plate, presence of S9 mix
[25] = WP2uvrA (pKM101), 78.1 μg/plate, absence of S9 mix
[26] = WP2uvrA (pKM101), 78.1 μg/plate, presence of S9 mix
[27] = WP2uvrA (pKM101), 313 μg/plate, absence of S9 mix

NNC(=O)c1ccncc1 [INH, isoniazid, reference compound] showed an MIC [1] of 0.2 µg/mL (≈ 1.46 µM).

For CCCCOc1ccc2cc(CN3C(=O)CC[C@H]3C(=O)OC)c3cc(OC)c(OC)cc3c2c1 [PP2S, Methyl (S)-1-((3-butoxy-6,7-dimethoxyphenanthren-9-yl)methyl)-5-oxopyrrolidine-2-carboxylate], the “Individual revertant colony counts” value [2, 5] was 77 colonies per plate and 71 colonies per plate, the Mean revertant colonies [2, 5] was 74 colonies per plate and the “Individual revertant colony counts” value [2, 6] was 116 colonies per plate and 111 colonies per plate. The Mean revertant colonies [2, 6] was 114 colonies per plate, the “Individual revertant colony counts” value [2, 7] was 78 colonies per plate and 85 colonies per plate and the Mean revertant colonies [2, 7] was 82 colonies per plate. The “Individual revertant colony counts” value [2, 8] was 111 colonies per plate and 107 colonies per plate, the Mean revertant colonies [2, 8] was 109 colonies per plate and the “Individual revertant colony counts” value [2, 9] was 98 colonies per plate and 95 colonies per plate. The Mean revertant colonies [2, 9] was 97 colonies per plate, the “Individual revertant colony counts” value [2, 10] was 111 colonies per plate and 107 colonies per plate and the Mean revertant colonies [2, 10] was 109 colonies per plate. For the same compound, the “Individual revertant colony counts” value [2, 11] was 18 colonies per plate and 19 colonies per plate, the Mean revertant colonies [2, 11] was 19 colonies per plate and the “Individual revertant colony counts” value [2, 12] was 10 colonies per plate and 12 colonies per plate. For the same compound, the Mean revertant colonies [2, 12] was 11 colonies per plate, the “Individual revertant colony counts” value [2, 13] was 18 colonies per plate and 19 colonies per plate and the Mean revertant colonies [2, 13] was 19 colonies per plate. The “Individual revertant colony counts” value [2, 14] was 17 colonies per plate and 15 colonies per plate, the Mean revertant colonies [2, 14] was 16 colonies per plate and the “Individual revertant colony counts” value [2, 15] was 15 colonies per plate and 17 colonies per plate. For the same compound, the Mean revertant colonies [2, 15] was 16 colonies per plate, the “Individual revertant colony counts” value [2, 16] was 16 colonies per plate and 15 colonies per plate and the Mean revertant colonies [2, 16] was 16 colonies per plate. For the same compound, the “Individual revertant colony counts” value [2, 17] was 10 colonies per plate and 11 colonies per plate, the Mean revertant colonies [2, 17] was 11 colonies per plate and the “Individual revertant colony counts” value [2, 18] was 16 colonies per plate and 14 colonies per plate. The Mean revertant colonies [2, 18] was 15 colonies per plate, the “Individual revertant colony counts” value [2, 19] was 11 colonies per plate and 10 colonies per plate and the Mean revertant colonies [2, 19] was 11 colonies per plate. For the same compound, the “Individual revertant colony counts” value [2, 20] was 18 colonies per plate and 17 colonies per plate, the Mean revertant colonies [2, 20] was 18 colonies per plate and the “Individual revertant colony counts” value [2, 21] was 9 colonies per plate and 8 colonies per plate. The Mean revertant colonies [2, 21] was 9 colonies per plate, the “Individual revertant colony counts” value [2, 22] was 18 colonies per plate and 19 colonies per plate and the Mean revertant colonies [2, 22] was 19 colonies per plate. For the same compound, the “Individual revertant colony counts” value [2, 23] was 92 colonies per plate and 86 colonies per plate, the Mean revertant colonies [2, 23] was 89 colonies per plate and the “Individual revertant colony counts” value [2, 24] was 149 colonies per plate and 156 colonies per plate. For the same compound, the Mean revertant colonies [2, 24] was 153 colonies per plate, the “Individual revertant colony counts” value [2, 25] was 87 colonies per plate and 94 colonies per plate and the Mean revertant colonies [2, 25] was 91 colonies per plate. For the same compound, the “Individual revertant colony counts” value [2, 26] was 156 colonies per plate and 167 colonies per plate, the Mean revertant colonies [2, 26] was 162 colonies per plate and the “Individual revertant colony counts” value [2, 27] was 91 colonies per plate and 93 colonies per plate. The Mean revertant colonies [2, 27] was 92 colonies per plate, the “Individual revertant colony counts” value ([2]; WP2uvrA (pKM101), 313 μg/plate, presence of S9 mix) was 162 colonies per plate and 165 colonies per plate and the genotoxicity ([2]; bacterial reverse mutation test) was “did not show genotoxicity”. For the same compound, the “Mean body weights ± S.D.” value ([3]; 500 mg/kg P.O., 0 day) was 35.9 ± 1.16 g, the “Mean body weights ± S.D.” value ([3]; 500 mg/kg P.O., 1 day) was 35.5 ± 1.48 g and the “% MNPCE (Mean ± S.D.)” value ([3]; 500 mg/kg P.O.) was 0.055 ± 0.037%. The “% PCE (Mean ± S.D.)” value ([3]; 500 mg/kg P.O.) was 30.5 ± 2.16%, the “Mean body weights ± S.D.” value ([3]; 1000 mg/kg P.O., 0 day) was 35.9 ± 1.07 g and the “Mean body weights ± S.D.” value ([3]; 1000 mg/kg P.O., 1 day) was 36.1 ± 1.42 g. For the same compound, the “% MNPCE (Mean ± S.D.)” value ([3]; 1000 mg/kg P.O.) was 0.060 ± 0.034%, the “% PCE (Mean ± S.D.)” value ([3]; 1000 mg/kg P.O.) was 31.8 ± 2.49% and the “Mean body weights ± S.D.” value ([3]; 2000 mg/kg P.O., 0 day) was 35.9 ± 1.14 g. The “Mean body weights ± S.D.” value ([3]; 2000 mg/kg P.O., 1 day) was 34.9 ± 1.63 g, the “% MNPCE (Mean ± S.D.)” value ([3]; 2000 mg/kg P.O.) was 0.055 ± 0.021% and the “% PCE (Mean ± S.D.)” value ([3]; 2000 mg/kg P.O.) was 33.6 ± 1.67%. For the same compound, the “RPD (relative population doubling)” value ([3]; S9 mix +, Trt-Rec 6-18 hr, 125 µg/mL) was 69.4%, the “RPD (relative population doubling)” value ([3]; S9 mix +, Trt-Rec 6-18 hr, 250 µg/mL) was 67.4% and the “RPD (relative population doubling)” value ([3]; S9 mix -, Trt-Rec 6-18 hr, 125 µg/mL) was 78.8%. The “RPD (relative population doubling)” value ([3]; S9 mix -, Trt-Rec 6-18 hr, 250 µg/mL) was 74.3%, the “RPD (relative population doubling)” value ([3]; S9 mix -, Trt-Rec 24-0 hr, 125 µg/mL) was 46.9% and the “RPD (relative population doubling)” value ([3]; S9 mix -, Trt-Rec 24-0 hr, 250 µg/mL) was 38.6%. The genotoxicity ([3]; bone marrow micronucleus formation test) was “did not show genotoxicity” and the “green signal of GFP-expressing M. tuberculosis in infected cells” value [4] was “decrease in green signal”.
